Experiments:
TDE0087 (TrkA) = biological target: T1, TDE0087 (TrkA) (Treponema denticola, UniProt Q73RK1); experiment: ELISA-type plate binding, immobilised protein, streptavidin-HRP; conditions: labelled compound (biotinylated c-di-AMP, 125 nM); 50 mM Tris-HCl pH 8.0, 750 mM KCl, 2.5 mM EDTA, 2 hr
T1 sequence (Q73RK1 1-466): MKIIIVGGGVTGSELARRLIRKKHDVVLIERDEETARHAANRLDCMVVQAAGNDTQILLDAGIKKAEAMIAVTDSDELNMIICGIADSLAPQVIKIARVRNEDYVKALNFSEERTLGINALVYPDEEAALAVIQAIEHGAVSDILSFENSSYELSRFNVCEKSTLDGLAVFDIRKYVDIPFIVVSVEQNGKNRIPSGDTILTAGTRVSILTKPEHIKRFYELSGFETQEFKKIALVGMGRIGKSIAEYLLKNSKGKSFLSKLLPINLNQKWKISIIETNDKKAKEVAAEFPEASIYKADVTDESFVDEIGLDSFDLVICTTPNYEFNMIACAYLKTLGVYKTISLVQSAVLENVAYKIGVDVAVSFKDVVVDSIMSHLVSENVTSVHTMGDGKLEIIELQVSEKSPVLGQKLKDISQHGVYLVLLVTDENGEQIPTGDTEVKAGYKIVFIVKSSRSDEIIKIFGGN

TDE1909 (CdaA) = TDE1909 (CdaA) (Treponema denticola, UniProt Q73LF5); type: biochemical; conditions: 150 µM ATP, 5 µM enzyme, 10 mM MnCl2, pH 7.5, 37 °C, 1-4 hr
TDE0027 (DhhA) = TDE0027 (DhhA) (Treponema denticola, UniProt Q73RQ8); experiment: absorbance at […] nm; type: biochemical; conditions: MnCl2 buffer, 30 min

| SMILES | ELISA-type plate binding, immobilised protein, streptavidin-HRP (TDE0087 (TrkA)) | RP-HPLC of reaction products (TDE1909 (CdaA)) | absorbance at 405 nm (TDE0027 (DhhA)) |
| --- | --- | --- | --- |
| Nc1ncnc2c1ncn2[C@@H]1O[C@@H]2COP(=O)(O)O[C@H]3[C@@H](O)[C@H](n4cnc5c(N)ncnc54)O[C@@H]3COP(=O)(O)O[C@H]2[C@H]1O [c-di-AMP] | TDE0087 bound c-di-AMP similarly to the CabP control | we observed that CdaA converted ATP to c-di-AMP while CdaR did not |  |
| Nc1ncnc2c1ncn2[C@@H]1O[C@H](COP(=O)(O)OP(=O)(O)OP(=O)(O)O)[C@@H](O)[C@H]1O [ATP] |  | we observed that CdaA converted ATP to c-di-AMP while CdaR did not |  |
| O=[N+]([O-])c1ccc(OP(=O)(O)Oc2ccc([N+](=O)[O-])cc2)cc1 [bis-pNPP] |  |  | TDE0027 hydrolyzed bis-pNPP but not pNPP |

Reference: paper PMC11368658 (Molecular oral microbiology, 2024)
